The results in this text go back to patent US20250236614A1, “BICYCLIC TETRAHYDROAZEPINE DERIVATIVES” (Hoffmann-La Roche Inc., priority 2022, published 2025).

The target in one experiment is DGK α kinase (Homo sapiens, UniProt P23743). The experiment in a line: In vitro DGK inhibition assay (ADP Glo) run by Reaction Biology Corp., DGK alpha. In kind it is biochemical. Particulars: isomer A, 2 nM kinase, 50 μM ATP, 500 uM DLG, 10-dose, 3-fold dilution starting at 1 μM, read-out: DGKalpha IC50. As for the experimental part: (§1) DGK α and ζ kinase use ATP to phosphorylate the substrate 1,2-dilauroyl-sn-glycerol (DLG). ATP is converted to ADP as a result of this enzymatic reaction.
(§2) After the kinase reaction, an ATP-depletion reagent is added to terminate the kinase reaction and deplete any remaining ATP, leaving only ADP. Second, a detection reagent is added to simultaneously convert ADP to ATP and allow the newly synthesized ATP to be converted to light using a coupled luciferase/luciferin reaction.
(§3) DGK α and ζ kinase ADP Glo assays were ran by Reaction Biology Corp., 1 Great Valley Parkway, Suite 2, Malverm, 19355, PA, USA. Information provided by the service provider are the following: DGK α and ζ kinases were used at 2 nM final concentration. Reactions were carried out at 50 μM ATP. 500 uM of the substrate DLG (Dilauroyl-sn-glycerol) was used. Compounds were received at 10 mM DMSO stock solution and were tested in 10-dose IC50 duplicate with 3-fold serial dilution starting at 1 μM. A control compound, Calphostin C, was tested in 10-dose IC50 with 3-fold serial dilution starting at 100 μM.

The target in experiment [1] is T1, hDGKzeta(1-928)-N-His (DGKZ) (Homo sapiens, UniProt Q13574).
T1 construct: hDGKzeta(1-928)-N-His; His (N)
Description: In vitro DGK inhibition assay (ADP-Glo, in house), DGK zeta. In kind it is biochemical. Particulars: isomer A; 2 nM DGK ζ, 50 μM ATP, 125 μM DLG in liposomes, 1 hour reaction; read-out: DGKzeta ADP Glo assay IC50. As for the experimental part: (§4) DGK α and ζ kinase use ATP to phosphorylate the substrate 1,2-dilauroyl-sn-glycerol (DLG, incorporated in the liposomes). ATP is converted to ADP as a result of this enzymatic reaction.
as §2
(§5) Full length DGKA and Z were expressed in Sf21 insect cells by infecting the cells with the baculovirus stock at MOI of 2. Purification of both enzymes was performed as previously described by Takahashi et al., PeerJ, 2018 (Takahashi, D.; Sakane, F. Expression and purification of human diacylglycerolkinase alpha from baculovirus-infected insect cells for structural studies. PeerJ2018, 6, No. e5449).
(§6) A concentrated liposome solution was prepared in assay buffer without DTT and BSA: 2 mM of DLG in 21 mM of total liposome (2 mM DLG/8 mM PS/11 mM PC). The reaction mixtures contain the assay buffer with a final DLG concentration of 125 μM ATP concentrations of 25 μM (for DGKA assay) or 50 μM (for DGKZ assay). The reactions were started by addition of DGK α and ζ kinases at 4 nM and 2 nM final concentrations, respectively. After 1 hour reaction, the amount of ADP formed was detected with the ADP-Glo kinase assay (Promega) according to the manufacturer instructions. Compounds were added in 11I-points dose response, starting at 10 mM, 1:3 dilutions, with a final DMSO concentration of […]. The multidrop combi was used as a liquid handler and luminescence was read with 0.5 s by the envision reader (PE).

A further experiment has as its target DGK ζ kinase (Homo sapiens, UniProt Q13574). The experiment in a line: In vitro DGK inhibition assay (ADP Glo) run by Reaction Biology Corp., DGK zeta. As to conditions: isomer A, 2 nM kinase, 50 μM ATP, 500 uM DLG, 10-dose, 3-fold dilution starting at 1 μM, read-out: DGKzeta IC50. In kind it is biochemical. As for the experimental part:
as §1, §2, §3

The next experiment has as its system primary human T-cells. The experiment in a line: T-cell proliferation assay (CellTiter-Glo). Format: cell-based. Particulars: Homo sapiens, T-cell, 120 h, isomer A; for EC50: CD3 antibody-stimulated T-cells, CellTiter-Glo after 5 days, read-out: Tcell Proliferation CD3 EC50; for Emax: CD3 condition, 5 days, 20 μM reference compound A1 = 100%, DMSO neutral control, read-out: Emax proliferation (% activation). On the procedure: Expanded primary human T-cells are thawed and cultured in RPMI 1640 (Gibco, #61870-010)+5% human serum (HS, Sigma, #H3667)+1 mM Sodium Pyruvate (Gibco, #11360-039)+50 μM 2-mercaptoethanol (Gibco, #31350-010) and 1× Pen-Strep (Life Technologies, #15140122) medium at density of 2 Mio/ml for 3 hours in 5% CO2, 37° C. and 95% humidity. For coating of plates, PBS++ only or PBS++ with CD3 antibody (concentration depending on donor and determined by CD3 titrations) is added 100 μl/well to Poly-D Lysine coated 96-well plates. Plates are sealed and incubated at room temperature for 3 hours on a table-top rocking platform. After incubation, plates are washed once with PBS−− and filled with 40 μl/well culture medium only. Compounds are then added (see next section) to medium only plates. After 3 hours of culturing the T-cells, cells are filtered through a cell strainer (Miltenyi Biotech, #130-041-407), counted again and concentration is adjusted to 1.25 Mio/ml.
Cells are then seeded 80 μl/well to the 40 μl/well including dispensed compounds according to plate layout. By adding cells, compounds are further diluted 1:3, and resulting in 100k cells/120 μl/well. After 48 hours 40 μl of supernatant is collected carefully from the top while not disturbing the cells. Cells are assessed for proliferation 5 days later by measuring […] using CellTiterGlo (Promega).
Compounds were added in a 5 or 6 pt dose response with the Tecan D300e Digital Dispenser, all conditions 3 times more concentrated than the end-concentration, since cells are added afterwards (80 μl cells to 40 μl prepared medium with treatment). The DR was starting at 20 μM or 10 μM final top concentration and a dilution factor of 3.333. The positive control was the reference compound A1 that was added in a dose response as well, additionally to 3 wells of only 20 μM representing the positive stimulator control. All wells were normalized with DMSO to a final concentration of 0.6% (0.2% end-concentration).
After 5 days, for detection of ATP which is directly proportional to the number of cells present per well, the CellTiter-Glo® 2.0 Reagent is used. After visual control for toxicity or precipitations of the tested compounds, the plates are equilibrated to room temperature for 45 minutes. CellTiter-Glo® 2.0 Reagent is equilibrated to room temperature as well. After equilibration, an equal amount of CellTiter-Glo reagent is added to the cells (80 μl/well) with an electronic multichannel pipette. Plates are placed on a rocking platform for 15 minutes at room temperature. After incubation, the bottom of the plates is sealed with backing tape. Luminescence is measured with PHERAstar FSX (interval time 0.5 sec, gain 3000, focal height 15 mm) and exported as CSV file for analysis in Genedata screener.
CD3 and PBS plates were analysed separately in Genedata Screener using Roche Normalization PCT_POS_CTRL with DMSO set as Neutral Control and 20 μM of the reference compound A1 set as Stimulator Control/100%.
For CD3 conditions EC50 and Emax of the fitted sigmoidal curve were reported. If no curve could be fitted, the EC50 was reported as blank field and the Emax was based on individual data points. […] Compounds which activate unstimulated cells (see IL2 measurements) or compounds which negatively affected viability were flagged.

Experiment [2] has as its target T2, hDGKalpha(1-735)-N-His (DGKA) (Homo sapiens, UniProt P23743).
T2 construct: hDGKalpha(1-735)-N-His; His (N)
The experiment in a line: In vitro DGK inhibition assay (ADP-Glo, in house), DGK alpha. Format: biochemical. Particulars: isomer A; 4 nM DGK α, 25 μM ATP, 125 μM DLG in liposomes, 1 hour reaction; read-out: DGKalpha ADP Glo assay IC50. On the procedure:
as §4, §2, §5, §6

SMILES strings stand for the structures.

T2 sequence (P23743 whole entry): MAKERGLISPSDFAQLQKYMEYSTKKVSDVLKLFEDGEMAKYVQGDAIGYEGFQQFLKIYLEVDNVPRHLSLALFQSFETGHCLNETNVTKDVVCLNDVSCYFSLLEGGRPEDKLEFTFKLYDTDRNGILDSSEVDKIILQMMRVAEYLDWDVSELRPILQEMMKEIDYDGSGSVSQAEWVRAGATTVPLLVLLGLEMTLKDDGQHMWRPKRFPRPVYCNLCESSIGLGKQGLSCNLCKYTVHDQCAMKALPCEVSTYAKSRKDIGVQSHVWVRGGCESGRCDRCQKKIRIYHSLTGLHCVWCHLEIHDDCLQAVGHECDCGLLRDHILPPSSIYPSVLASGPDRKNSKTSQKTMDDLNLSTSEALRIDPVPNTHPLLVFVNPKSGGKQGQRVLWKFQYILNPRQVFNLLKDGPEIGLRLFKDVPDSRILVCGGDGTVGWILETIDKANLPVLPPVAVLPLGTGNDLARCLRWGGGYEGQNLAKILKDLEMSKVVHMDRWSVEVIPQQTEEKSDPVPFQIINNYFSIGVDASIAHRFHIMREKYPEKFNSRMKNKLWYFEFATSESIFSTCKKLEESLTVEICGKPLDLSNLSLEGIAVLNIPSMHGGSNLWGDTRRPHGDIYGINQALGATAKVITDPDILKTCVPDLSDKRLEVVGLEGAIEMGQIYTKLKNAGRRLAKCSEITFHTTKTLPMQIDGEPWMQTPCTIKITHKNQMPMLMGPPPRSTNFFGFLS
T1 sequence (Q13574 whole entry): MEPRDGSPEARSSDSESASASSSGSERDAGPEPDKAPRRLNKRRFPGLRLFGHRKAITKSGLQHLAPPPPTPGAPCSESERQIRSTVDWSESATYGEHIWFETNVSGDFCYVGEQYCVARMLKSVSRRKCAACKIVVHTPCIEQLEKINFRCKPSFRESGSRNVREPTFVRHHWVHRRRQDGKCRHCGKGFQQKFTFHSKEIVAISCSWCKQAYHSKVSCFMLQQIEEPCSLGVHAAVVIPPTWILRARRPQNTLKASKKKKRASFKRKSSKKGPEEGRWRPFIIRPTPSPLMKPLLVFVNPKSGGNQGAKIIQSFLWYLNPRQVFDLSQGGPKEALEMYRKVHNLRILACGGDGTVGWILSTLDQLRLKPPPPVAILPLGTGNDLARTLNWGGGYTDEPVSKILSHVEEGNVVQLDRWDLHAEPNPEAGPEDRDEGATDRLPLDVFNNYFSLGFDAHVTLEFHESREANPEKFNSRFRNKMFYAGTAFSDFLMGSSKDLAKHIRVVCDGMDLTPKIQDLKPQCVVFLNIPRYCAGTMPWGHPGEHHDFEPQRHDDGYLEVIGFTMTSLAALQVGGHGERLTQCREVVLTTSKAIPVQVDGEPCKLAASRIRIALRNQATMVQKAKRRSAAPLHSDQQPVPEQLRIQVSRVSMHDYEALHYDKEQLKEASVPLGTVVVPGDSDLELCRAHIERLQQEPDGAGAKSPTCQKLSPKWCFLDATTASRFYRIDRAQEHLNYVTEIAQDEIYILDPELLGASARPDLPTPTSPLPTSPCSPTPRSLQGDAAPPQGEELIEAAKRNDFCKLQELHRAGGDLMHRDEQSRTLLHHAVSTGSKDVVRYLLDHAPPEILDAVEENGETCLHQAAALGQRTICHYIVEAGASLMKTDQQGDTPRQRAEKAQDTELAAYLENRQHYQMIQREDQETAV
Chain of DGK α kinase (P23743 whole entry): as the sequence (P23743 whole entry) above
Chain of DGK ζ kinase (Q13574 whole entry): as the sequence (Q13574 whole entry) above

On to `CC(C)(C#N)c1nnc(-c2cc3c(cc2F)C(F)(F)C[C@@H](N)C(=O)N3Cc2ccc(Oc3ccccc3)cc2)o1` (single isomer, unassigned) [Example 11], for which the IC50 on DGK α kinase came out at 0.0069 µM; in experiment [1] it was 1.25 µM; at DGK ζ kinase it was 0.0206 µM; in experiment [2] it was 3.31 µM. The EC50 in the experiment with primary human T-cells was 0.193 µM. In addition, the Emax in the experiment on primary human T-cells is 88%.
As for `CC(C)(C)c1cncc(-c2cc3c(cc2F)C(F)(F)C[C@@H](N)C(=O)N3Cc2ccc(Cl)cc2)c1` (single isomer, unassigned) [Example 18], in experiment [1], the IC50 is more than 62.5 µM. For the same compound, in the experiment on primary human T-cells, the EC50 was found to be 0.666 µM and the Emax is 52%. Further, the concentration for half-maximal inhibition (IC50) in experiment [2] was more than 62.5 µM.
Turning to `CC(C)(C#N)c1nnc(-c2cc3c(cc2F)C(F)(F)C[C@@H](N)C(=O)N3Cc2ccc(-n3cc(OC(F)(F)F)cn3)cc2)o1` (single isomer, unassigned) [Example 43], in the experiment with primary human T-cells, the EC50 is 0.0234 µM and the Emax was 105%.
On to `CC(C)(C#N)c1nnc(-c2cc3c(cc2F)C(F)(F)C[C@@H](N)C(=O)N3Cc2ccc(-n3cc(C(F)(F)F)cn3)cc2F)o1` (single isomer, unassigned) [Example 44], for which, in the experiment on primary human T-cells, the EC50 worked out at 1.46 µM and the Emax worked out at 126%.
With `CC(C)(C#N)c1nnc(-c2cc3c(cc2F)C(F)(F)C[C@@H](N)C(=O)N3Cc2ccc(-n3cc(C(F)(F)F)cn3)nc2F)o1` (single isomer, unassigned) [Example 45], in the experiment on primary human T-cells, the EC50 was found to be 2.94 µM and the Emax was found to be 67%.
Take `CC(C)(C#N)c1nnc(-c2cc3c(cc2F)C(F)(F)C[C@@H](N)C(=O)N3Cc2ccc(-n3cc(C(F)(F)F)cn3)nc2)o1` (single isomer, unassigned) [Example 46]: the concentration for half-maximal inhibition (IC50) in experiment [1] was found to be 6.75 µM. Also, in the experiment with primary human T-cells, the EC50 worked out at 0.542 µM and the Emax is 87%. Besides, the half-inhibitory concentration (IC50) in experiment [2] came to 17.8 µM.
On to `CC(C)(C#N)c1nnc(-c2cc3c(cc2F)C(F)(F)C[C@@H](N)C(=O)N3Cc2ccc(-n3cc(C(F)(F)F)cn3)c(F)c2)o1` (single isomer, unassigned) [Example 47], for which the IC50 in experiment [1] was 2.99 µM. Besides, in the experiment with primary human T-cells, the EC50 amounted to 0.496 µM and the Emax amounted to 98%. The IC50 in experiment [2] was found to be 23.7 µM.
For `CC(C)(C#N)c1nnc(-c2cc3c(cc2F)C(F)(F)C[C@@H](N)C(=O)N3Cc2ccc(-c3cnn(C(F)(F)F)c3)cc2)o1` (single isomer, unassigned) [Example 48], in that order: 4.92 µM, 0.163 µM, 171% and 1.51 µM.
